Test results taken from ChEMBL document CHEMBL5303711, “ECBD screening data for assay EOS300108” (2023).
Structures can show the parent of a compound that is named as a salt. Calls of active or inactive are those of the source. How the calls were made is not given here. Residues, ends and D or L forms follow the SMILES beside them. *: point of attachment. Cbz = O=C(OCc1ccccc1)*

Assay: Cytotoxicity activity against human HepG2 cells assessed by CellTiter-Glo luminescent cell viability assay.
Format: toxicity, cell-based
Design: assay stage confirmatory assay, source tissue liver
Conditions: HepG2 cells, read-out: IC50 relative

Question: For `O=C1CCc2c(Oc3ccc4c(c3)[C@@H]3[C@H](O4)[C@H]3c3nc4ccc(C(F)(F)F)cc4[nH]3)ccnc2N1` [LIFIRAFENIB], which CC50 is on record?
Answer: 0.5 µM (active)

Question: For `C[C@]1(O)C[C@@H](c2nc(-c3ccc4ccc(-c5ccccc5)nc4c3)c3c(N)nccn32)C1` [LINSITINIB], which CC50 is on record?
Answer: 5.3 µM (active)

Question: With `O=C(NC1CCN(CCCCC2(C(=O)NCC(F)(F)F)c3ccccc3-c3ccccc32)CC1)c1ccccc1-c1ccc(C(F)(F)F)cc1` [LOMITAPIDE] as the compound, how does the CC50 read?
Answer: 1.4 µM (active)

Question: Which CC50 does the source give for `CCNC(=O)c1noc(-c2cc(C(C)C)c(O)cc2O)c1-c1ccc(CN2CCOCC2)cc1` [LUMINESPIB] here?
Answer: < 0.1 µM (active)

Question: Which CC50 does the source give for `O=c1cc(-c2ccc(O)c(O)c2)oc2cc(O)cc(O)c12` [LUTEOLIN] here?
Answer: 9 µM (active)

Question: For `O=C1NC(=O)C(c2cnc3ccccn23)=C1c1cn2c3c(cc(F)cc13)CN(C(=O)N1CCCCC1)CC2` [LY-2090314], which CC50 is on record?
Answer: 9.5 µM (active)

Question: For `C[C@@H](Oc1ccc2[nH]nc(/C=C/c3cnn(CCO)c3)c2c1)c1c(Cl)cncc1Cl` [LY-2874455], which CC50 is on record?
Answer: 0.7 µM (active)

Question: Which CC50 does the source give for `CNc1ncc2cc(-c3cc(NC(=O)NCCC(C)(C)C)c(F)cc3C)c(C)nc2n1` [LY-3009120] here?
Answer: 0.4 µM (active)

Question: For `CNCCCC12CCC(c3ccccc31)c1ccccc12` [MAPROTILINE HYDROCHLORIDE], which CC50 is on record?
Answer: 4.7 µM (active)

Question: Which CC50 does the source give for `Cc1ccc(NC(=O)c2ccc(CN3CCN(C)CC3)cc2)cc1Nc1nc(-c2cccnc2)cs1` [MASITINIB] here?
Answer: 3.5 µM (active)

Question: With `Cc1ccc(C(=O)Nc2ccc(Oc3cc4cnn(C)c4cc3-c3cn[nH]c3)c(F)c2)c(=O)n1-c1ccc(F)cc1` [MERESTINIB] as the compound, how does the CC50 read?
Answer: 2.9 µM (active)

Question: For `CN1C[C@H](CNC(=O)OCc2ccccc2)C[C@@H]2c3cccc4c3c(cn4C)C[C@H]21` [METERGOLINE], which CC50 is on record?
Answer: 6.3 µM (active)

Question: With `CN(Cc1cnc2nc(N)nc(N)c2n1)c1ccc(C(=O)N[C@@H](CCC(=O)O)C(=O)O)cc1` [METHOTREXATE] as the compound, how does the CC50 read?
Answer: < 0.1 µM (active)

Question: With `CN(C)c1ccc2nc3ccc(=[N+](C)C)cc-3sc2c1` [METHYLENE BLUE ANHYDROUS] as the compound, how does the CC50 read?
Answer: 3 µM (active)

Question: With `CN(C)c1ccc(C(O)(c2ccc(N(C)C)cc2)c2ccc(N(C)C)cc2)cc1` [METHYLROSANILINE] as the compound, how does the CC50 read?
Answer: 2 µM (active)

Question: With `CSc1ccc2c(c1)C(N1CCN(C)CC1)Cc1ccccc1S2` (centres undefined) [METITEPINE] as the compound, how does the CC50 read?
Answer: 4.9 µM (active)

Question: With `CC[C@H](C)C(=O)O[C@H]1CCC=C2C=C[C@H](C)[C@H](CC[C@@H]3C[C@@H](O)CC(=O)O3)[C@H]21` [MEVASTATIN] as the compound, how does the CC50 read?
Answer: 33.3 µM (inactive)

Question: For `CC(C)C[C@@H](C=O)NC(=O)[C@H](CC(C)C)NC(=O)[C@H](CC(C)C)NC(=O)OCc1ccccc1` [MG-132] (Cbz-Leu-Leu-Leu-aldehyde), which CC50 is on record?
Answer: 0.5 µM (active)

Question: Which CC50 does the source give for `COCC(=O)O[C@]1(CCN(C)CCCc2nc3ccccc3[nH]2)CCc2cc(F)ccc2[C@@H]1C(C)C` [MIBEFRADIL DIHYDROCHLORIDE] here?
Answer: 3.1 µM (active)

Question: Which CC50 does the source give for `Clc1ccc(COC(Cn2ccnc2)c2ccc(Cl)cc2Cl)c(Cl)c1` (centres undefined) [MICONAZOLE NITRATE] here?
Answer: 12 µM (active)

Question: For `CNC(=O)c1nn(C)c2c1C(C)(C)Cc1cnc(Nc3ccc(N4CCN(C)CC4)cc3)nc1-2` [MILCICLIB], which CC50 is on record?
Answer: 0.9 µM (active)

Question: With `Nc1ncccc1-c1nc2ccc(-c3ccccc3)nc2n1-c1ccc(C2(N)CCC2)cc1` [MIRANSERTIB] as the compound, how does the CC50 read?
Answer: 4.2 µM (active)

Question: Which CC50 does the source give for `O=C(NOC[C@H](O)CO)c1ccc(F)c(F)c1Nc1ccc(I)cc1F` [MIRDAMETINIB] here?
Answer: < 0.1 µM (active)

Question: Which CC50 does the source give for `O=C1c2c(O)ccc(O)c2C(=O)c2c(NCCNCCO)ccc(NCCNCCO)c21` [MITOXANTRONE] here?
Answer: 0.8 µM (active)

Question: Which CC50 does the source give for `CCS(=O)(=O)Nc1ccc(Oc2ccc(F)cc2F)c(-c2cn(C)c(=O)c3[nH]ccc23)c1` [MIVEBRESIB] here?
Answer: 0.3 µM (active)

Question: With `C[C@@H]1CN(c2cc(-c3n[nH]c4ccc(OC5(C)CC5)cc34)ncn2)C[C@H](C)O1` [MLi-2] as the compound, how does the CC50 read?
Answer: 16.5 µM (active)

Question: With `CCNC(=O)C[C@@H]1N=C(c2ccc(Cl)cc2)c2cc(OC)ccc2-n2c(C)nnc21` [MOLIBRESIB] as the compound, how does the CC50 read?
Answer: 2.6 µM (active)

Question: Which CC50 does the source give for `N#CCNC(=O)c1ccc(-c2ccnc(Nc3ccc(N4CCOCC4)cc3)n2)cc1` [MOMELOTINIB] here?
Answer: 5.2 µM (active)

Question: For `CCCN(CCC)C(=O)C1=Cc2ccc(-c3ccc(C(=O)N4CCCC4)cc3)cc2N=C(N)C1` [MOTOLIMOD], which CC50 is on record?
Answer: 11.3 µM (active)

Question: For `FC(F)(F)c1ccc(/C=C/c2nc(COc3ccc(CCCCn4ccnn4)cc3)co2)cc1` [MUBRITINIB], which CC50 is on record?
Answer: 0.3 µM (active)

Question: Which CC50 does the source give for `Cc1cc(C(=O)Nc2nc3cccc(Cl)c3n2[C@@H]2CCCCN(C(=O)/C=C/CN(C)C)C2)ccn1` [NAZARTINIB] here?
Answer: 6.4 µM (active)

Question: With `COc1ccc([C@@H](O)c2cc(-c3ncnc4cc(N5CCOCC5)ccc34)c(F)cc2Cl)nn1` [NEDISERTIB] as the compound, how does the CC50 read?
Answer: 3.4 µM (active)

Question: For `CCc1nn(CCCN2CCN(c3cccc(Cl)c3)CC2)c(=O)n1CCOc1ccccc1` [NEFAZODONE HYDROCHLORIDE], which CC50 is on record?
Answer: 14.4 µM (active)

Question: With `CC(C)N1CCN(Cc2cnc(-c3cc(-c4cccc5[nH]ccc45)cc4[nH]ncc34)o2)CC1` [NEMIRALISIB] as the compound, how does the CC50 read?
Answer: 4.4 µM (active)

Question: For `CCOc1cc2ncc(C#N)c(Nc3ccc(OCc4ccccn4)c(Cl)c3)c2cc1NC(=O)/C=C/CN(C)C` [NERATINIB], which CC50 is on record?
Answer: 9.9 µM (inactive)

Question: For `CNc1cccc(NC(=O)N[C@@H]2N=C(c3ccccn3)c3ccccc3N(CC(=O)C(C)(C)C)C2=O)c1` [NETAZEPIDE], which CC50 is on record?
Answer: 18.4 µM (inactive)

Question: For `CCCCN(Cc1ccc(C(=O)NO)cc1)C(=O)Nc1ccccc1` [NEXTURASTAT A], which CC50 is on record?
Answer: 6.9 µM (active)

Question: With `O=C(Nc1ccc([N+](=O)[O-])cc1Cl)c1cc(Cl)ccc1O` [NICLOSAMIDE] as the compound, how does the CC50 read?
Answer: 0.7 µM (active)

Question: Which CC50 does the source give for `CC[N+](CC)=c1ccc2nc3c(cc(N)c4ccccc43)oc-2c1` [NILE BLUE HYDROCHLORIDE] here?
Answer: 2 µM (active)

Question: For `COC(=O)C1=C(C)NC(C)=C(C(=O)OCC(C)C)C1c1ccccc1[N+](=O)[O-]` (centres undefined) [NISOLDIPINE], which CC50 is on record?
Answer: 11.1 µM (active)

Question: For `O=[N+]([O-])c1ccc(O)c2ncccc12` [NITROXOLINE], which CC50 is on record?
Answer: 12.4 µM (active)

Question: With `CC(Cc1ccc(O)c(O)c1)C(C)Cc1ccc(O)c(O)c1` (centres undefined) [NORDIHYDROGUAIARETIC ACID] as the compound, how does the CC50 read?
Answer: 10.3 µM (inactive)

Question: For `O=C(O)c1ccc2cc(-c3ccc(O)c(C45CC6CC(CC(C6)C4)C5)c3)ccc2c1` [O-DEMETHYLATED ADAPALENE], which CC50 is on record?
Answer: 8.3 µM (active)

Question: With `CC1(C)CC[C@]2(C(=O)O)CC[C@]3(C)C(=CC[C@@H]4[C@@]5(C)CCC(=O)C(C)(C)[C@@H]5CC[C@]43C)[C@@H]2C1` [OLEANONIC ACID] as the compound, how does the CC50 read?
Answer: 8.4 µM (inactive)

Question: Which CC50 does the source give for `COC(=O)C[C@](O)(CCCC(C)(C)O)C(=O)O[C@@H]1C(OC)=C[C@]23CCCN2CCc2cc4c(cc2[C@H]13)OCO4` [OMACETAXINE MEPESUCCINATE] here?
Answer: 0.2 µM (active)

Question: With `COc1ncc(-c2ccc3nccc(-c4ccnnc4)c3c2)cc1NS(=O)(=O)c1ccc(F)cc1F` [OMIPALISIB] as the compound, how does the CC50 read?
Answer: 0.1 µM (active)

Question: With `CO[C@H]1CC[C@H](N2C(=O)CNc3ncc(-c4ccc(C(C)(C)O)nc4)nc32)CC1` [ONATASERTIB] as the compound, how does the CC50 read?
Answer: 6 µM (active)

Question: Which CC50 does the source give for `CN1CCN(c2ccc(OC(F)(F)F)c(Nc3ncc4c(n3)-c3c(c(C(N)=O)nn3CCO)CC4)c2)CC1` [ONVANSERTIB] here?
Answer: 11.9 µM (active)
